What was measured:
[1] = system: rutabaga (Brassica napus var. napobrassica, BRSNA); experiment: Example 5 greenhouse trials, postemergence visual injury; conditions: for % Visual Injury Obs / Visual Injury Obs: BRSNA
[2] = system: Roundup Ready® canola (Brassica napus, RR-BRSNN); experiment: as above; conditions: for % Visual Injury Obs / Visual Injury Obs: RR-BRSNN
[3] = system: turnip or Polish canola (Brassica rapa, BRSRR); experiment: as above; conditions: for % Visual Injury Obs / Visual Injury Obs: BRSRR
[4] = system: Nexera™ canola (Brassica napus, BRSNN-NEX); experiment: as above; conditions: for % Visual Injury Obs / Visual Injury Obs: BRSNN-NEX
[5] = system: kale/Chinese kale (Brassica alboglabra, BRSAG); experiment: as above; conditions: for % Visual Injury Obs / Visual Injury Obs: BRSAG
[6] = system: winter oilseed rape (Brassica napus, BRSNW); experiment: Example 4 field trials (Europe), postemergence crop safety, visual phytotoxicity; conditions: for Mean % Visual Injury / Mean % Visual Deformation: alone or mixed
[7] = system: winter oilseed rape (Brassica napus, BRSNW); experiment: Example 5 greenhouse trials, postemergence visual injury; conditions: for % Visual Injury Obs / Visual Injury Obs: BRSNW
[8] = system: spring oilseed rape (Brassica napus, BRSNS); experiment: Example 4 field trials (Europe), postemergence crop safety, visual phytotoxicity
[9] = 6DAA1, halauxifen-methyl 5, clopyralid-olamine 120 g ae/ha
[10] = 7DAA1, halauxifen-methyl 5, clopyralid-olamine 120 g ae/ha
[11] = 19DAA1, halauxifen-methyl 5, clopyralid-olamine 120 g ae/ha
[12] = Trial 1, 27DAA1, halauxifen-methyl 5, clopyralid-olamine 120 g ae/ha
[13] = Trial 2, 6DAA1, halauxifen-methyl 5, clopyralid-olamine 120 g ae/ha
[14] = Trial 2, 7DAA1, halauxifen-methyl 5, clopyralid-olamine 120 g ae/ha
[15] = halauxifen-methyl alone 2.5 g ai/ha
[16] = halauxifen-methyl alone 5 g ai/ha
[17] = halauxifen-methyl alone 10 g ai/ha

## O=C(O)c1nc(Cl)ccc1Cl [Clopyralid-olamine, 2-hydroxyethanaminium 3,6-dichloro-2-pyridinecarboxylate]
[1]; 50 g ai/ha alone, 20-22 d
  % Visual Injury Obs: 0%
[1]; 100 g ai/ha alone, 20-22 d
  % Visual Injury Obs: 0%
[1]; 200 g ai/ha alone, 20-22 d
  % Visual Injury Obs: 0%
[2]; 50 g ai/ha alone, 20-22 d
  % Visual Injury Obs: 0%
[2]; 100 g ai/ha alone, 20-22 d
  % Visual Injury Obs: 0%
[2]; 200 g ai/ha alone, 20-22 d
  % Visual Injury Obs: 0%
[3]; 50 g ai/ha alone, 20-22 d
  % Visual Injury Obs: 0%
[3]; 100 g ai/ha alone, 20-22 d
  % Visual Injury Obs: 0%
[3]; 200 g ai/ha alone, 20-22 d
  % Visual Injury Obs: 0%
[4]; 50 g ai/ha alone, 20-22 d
  % Visual Injury Obs: 0%
[4]; 100 g ai/ha alone, 20-22 d
  % Visual Injury Obs: 0%
[4]; 200 g ai/ha alone, 20-22 d
  % Visual Injury Obs: 0%
[5]; 50 g ai/ha alone, 20-22 d
  % Visual Injury Obs: 0%
[5]; 100 g ai/ha alone, 20-22 d
  % Visual Injury Obs: 0%
[5]; 200 g ai/ha alone, 20-22 d
  % Visual Injury Obs: 0%
[6]; [9]
  Mean % Visual Injury: 1%
[6]; [10]
  Mean % Visual Injury: 1%
[6]; [11]
  Mean % Visual Injury: 1%
[6]; 85DAA1, 120 g ae/ha alone
  Mean % Visual Growth Inhibition: 3.8%
[6]; [12]
  Mean % Visual Deformation: 23.8%
[6]; [13]
  Mean % Visual Deformation: 1.0%
[6]; [14]
  Mean % Visual Deformation: 1.0%
[7]; 50 g ai/ha alone, 20-22 d
  % Visual Injury Obs: 0%
[7]; 100 g ai/ha alone, 20-22 d
  % Visual Injury Obs: 0%
[7]; 200 g ai/ha alone, 20-22 d
  % Visual Injury Obs: 0%
[8]; Trial 1, 14DAA1, 125 g ae/ha alone
  Mean % Visual Growth Inhibition: 3.0%
[8]; Trial 1, 14DAA1, 250 g ae/ha alone
  Mean % Visual Growth Inhibition: 3.0%
[8]; Trial 2, 17DAA1, 100 g ae/ha alone
  Mean % Visual Growth Inhibition: 0.0%
[8]; Trial 2, 17DAA1, 120 g ae/ha alone
  Mean % Visual Growth Inhibition: 2.3%
[8]; Trial 2, 24DAA1, 100 g ae/ha alone
  Mean % Visual Growth Inhibition: 0.0%
[8]; Trial 2, 24DAA1, 120 g ae/ha alone
  Mean % Visual Growth Inhibition: 2.0%

## COC(=O)c1nc(-c2ccc(Cl)c(OC)c2F)cc(N)c1Cl [Halauxifen-methyl, methyl 4-amino-3-chloro-6-(4-chloro-2-fluoro-3-methoxyphenyl)-2-pyridineccarboxylate]
[1]; 2.5 g ai/ha alone, 20-22 d
  % Visual Injury Obs: 5%
[1]; 5 g ai/ha alone, 20-22 d
  % Visual Injury Obs: 5%
[1]; 10 g ai/ha alone, 20-22 d
  % Visual Injury Obs: 10%
[1]; halauxifen-methyl 2.5 g ai/ha
  % Visual Injury Obs: 5%
  Visual Injury Obs: 5%
[1]; halauxifen-methyl 5 g ai/ha
  % Visual Injury Obs: 5%
  Visual Injury Obs: 5%
[1]; halauxifen-methyl 10 g ai/ha
  % Visual Injury Obs: 10%
  Visual Injury Obs: 10%
[1]; [15]
  Percent (%) Visual Injury BRSNA Obs: 5%
[1]; [16]
  Percent (%) Visual Injury BRSNA Obs: 5%
[1]; [17]
  Percent (%) Visual Injury BRSNA Obs: 10%
[2]; 2.5 g ai/ha alone, 20-22 d
  % Visual Injury Obs: 11%
[2]; 5 g ai/ha alone, 20-22 d
  % Visual Injury Obs: 14%
[2]; 10 g ai/ha alone, 20-22 d
  % Visual Injury Obs: 21%
[2]; halauxifen-methyl 2.5 g ai/ha
  % Visual Injury Obs: 11%
  Visual Injury Obs: 11%
[2]; halauxifen-methyl 5 g ai/ha
  % Visual Injury Obs: 14%
  Visual Injury Obs: 14%
[2]; halauxifen-methyl 10 g ai/ha
  % Visual Injury Obs: 21%
  Visual Injury Obs: 21%
[2]; [15]
  Percent (%) Visual Injury RR-BRSNN Obs: 11%
[2]; [16]
  Percent (%) Visual Injury RR-BRSNN Obs: 14%
[2]; [17]
  Percent (%) Visual Injury RR-BRSNN Obs: 21%
[3]; 2.5 g ai/ha alone, 20-22 d
  % Visual Injury Obs: 5%
[3]; 5 g ai/ha alone, 20-22 d
  % Visual Injury Obs: 6%
[3]; 10 g ai/ha alone, 20-22 d
  % Visual Injury Obs: 10%
[3]; halauxifen-methyl 2.5 g ai/ha
  % Visual Injury Obs: 5%
  Visual Injury Obs: 5%
[3]; halauxifen-methyl 5 g ai/ha
  % Visual Injury Obs: 6%
  Visual Injury Obs: 6%
[3]; halauxifen-methyl 10 g ai/ha
  % Visual Injury Obs: 10%
  Visual Injury Obs: 10%
[3]; [15]
  Percent (%) Visual Injury BRSRR Obs: 5%
[3]; [16]
  Percent (%) Visual Injury BRSRR Obs: 6%
[3]; [17]
  Percent (%) Visual Injury BRSRR Obs: 10%
[4]; 2.5 g ai/ha alone, 20-22 d
  % Visual Injury Obs: 15%
[4]; 5 g ai/ha alone, 20-22 d
  % Visual Injury Obs: 20%
[4]; 10 g ai/ha alone, 20-22 d
  % Visual Injury Obs: 23%
[4]; halauxifen-methyl 2.5 g ai/ha
  % Visual Injury Obs: 15%
  Visual Injury Obs: 15%
[4]; halauxifen-methyl 5 g ai/ha
  % Visual Injury Obs: 20%
  Visual Injury Obs: 20%
[4]; halauxifen-methyl 10 g ai/ha
  % Visual Injury Obs: 23%
  Visual Injury Obs: 23%
[4]; [15]
  Percent (%) Visual Injury BRSNN-NEX Obs: 15%
[4]; [16]
  Percent (%) Visual Injury BRSNN-NEX Obs: 20%
[4]; [17]
  Percent (%) Visual Injury BRSNN-NEX Obs: 23%
[5]; 2.5 g ai/ha alone, 20-22 d
  % Visual Injury Obs: 6%
[5]; 5 g ai/ha alone, 20-22 d
  % Visual Injury Obs: 10%
[5]; 10 g ai/ha alone, 20-22 d
  % Visual Injury Obs: 16%
[5]; halauxifen-methyl 2.5 g ai/ha
  % Visual Injury Obs: 6%
  Visual Injury Obs: 6%
[5]; halauxifen-methyl 5 g ai/ha
  % Visual Injury Obs: 10%
  Visual Injury Obs: 10%
[5]; halauxifen-methyl 10 g ai/ha
  % Visual Injury Obs: 16%
  Visual Injury Obs: 16%
[5]; [15]
  Percent (%) Visual Injury BRSAG Obs: 6%
[5]; [16]
  Percent (%) Visual Injury BRSAG Obs: 10%
[5]; [17]
  Percent (%) Visual Injury BRSAG Obs: 16%
[6]; [9]
  Mean % Visual Injury: 1%
[6]; [10]
  Mean % Visual Injury: 1%
[6]; [11]
  Mean % Visual Injury: 1%
[6]; 85DAA1, 5 g ae/ha alone
  Mean % Visual Growth Inhibition: 5.0%
[6]; [12]
  Mean % Visual Deformation: 0%
[6]; [13]
  Mean % Visual Deformation: 1%
[6]; [14]
  Mean % Visual Deformation: 1%
[7]; 2.5 g ai/ha alone, 20-22 d
  % Visual Injury Obs: 7%
[7]; 5 g ai/ha alone, 20-22 d
  % Visual Injury Obs: 10%
[7]; 10 g ai/ha alone, 20-22 d
  % Visual Injury Obs: 14%
[7]; halauxifen-methyl 2.5 g ai/ha
  % Visual Injury Obs: 7%
  Visual Injury Obs: 7%
[7]; halauxifen-methyl 5 g ai/ha
  % Visual Injury Obs: 10%
  Visual Injury Obs: 10%
[7]; halauxifen-methyl 10 g ai/ha
  % Visual Injury Obs: 14%
  Visual Injury Obs: 14%
[7]; [15]
  Percent (%) Visual Injury BRSNW Obs: 7%
[7]; [16]
  Percent (%) Visual Injury BRSNW Obs: 10%
[7]; [17]
  Percent (%) Visual Injury BRSNW Obs: 14%
[8]; Trial 1, 14DAA1, 5 g ae/ha alone
  Mean % Visual Growth Inhibition: 3%
[8]; Trial 1, 14DAA1, 6 g ae/ha alone
  Mean % Visual Growth Inhibition: 3%
[8]; Trial 1, 14DAA1, 10 g ae/ha alone
  Mean % Visual Growth Inhibition: 3%
[8]; Trial 1, 14DAA1, 12 g ae/ha alone
  Mean % Visual Growth Inhibition: 3%
[8]; Trial 2, 17DAA1, 5 g ae/ha alone
  Mean % Visual Growth Inhibition: 10%
[8]; Trial 2, 24DAA1, 5 g ae/ha alone
  Mean % Visual Growth Inhibition: 10%

— US20170354148A1, “SAFENED HERBICIDAL COMPOSITIONS CONTAINING HALAUXIFEN AND METHODS OF USE THEREOF IN BRASSICA SPECIES” (Dow AgroSciences LLC, priority 2016, published 2017)
